We go through 28 molecules from paper PMC9504748, “Discovery of Flavonoids as Novel Inhibitors of ATP Citrate Lyase: Structure–Activity Relationship and Inhibition Profiles” (International Journal of Molecular Sciences, 2022).

Data set [1] concerns the target T1, ACLY (Homo sapiens, UniProt P53396).
T1 construct: His; made in house; host or cells: Escherichia coli BL21(DE3)
T1 sequence (P53396 1-1101): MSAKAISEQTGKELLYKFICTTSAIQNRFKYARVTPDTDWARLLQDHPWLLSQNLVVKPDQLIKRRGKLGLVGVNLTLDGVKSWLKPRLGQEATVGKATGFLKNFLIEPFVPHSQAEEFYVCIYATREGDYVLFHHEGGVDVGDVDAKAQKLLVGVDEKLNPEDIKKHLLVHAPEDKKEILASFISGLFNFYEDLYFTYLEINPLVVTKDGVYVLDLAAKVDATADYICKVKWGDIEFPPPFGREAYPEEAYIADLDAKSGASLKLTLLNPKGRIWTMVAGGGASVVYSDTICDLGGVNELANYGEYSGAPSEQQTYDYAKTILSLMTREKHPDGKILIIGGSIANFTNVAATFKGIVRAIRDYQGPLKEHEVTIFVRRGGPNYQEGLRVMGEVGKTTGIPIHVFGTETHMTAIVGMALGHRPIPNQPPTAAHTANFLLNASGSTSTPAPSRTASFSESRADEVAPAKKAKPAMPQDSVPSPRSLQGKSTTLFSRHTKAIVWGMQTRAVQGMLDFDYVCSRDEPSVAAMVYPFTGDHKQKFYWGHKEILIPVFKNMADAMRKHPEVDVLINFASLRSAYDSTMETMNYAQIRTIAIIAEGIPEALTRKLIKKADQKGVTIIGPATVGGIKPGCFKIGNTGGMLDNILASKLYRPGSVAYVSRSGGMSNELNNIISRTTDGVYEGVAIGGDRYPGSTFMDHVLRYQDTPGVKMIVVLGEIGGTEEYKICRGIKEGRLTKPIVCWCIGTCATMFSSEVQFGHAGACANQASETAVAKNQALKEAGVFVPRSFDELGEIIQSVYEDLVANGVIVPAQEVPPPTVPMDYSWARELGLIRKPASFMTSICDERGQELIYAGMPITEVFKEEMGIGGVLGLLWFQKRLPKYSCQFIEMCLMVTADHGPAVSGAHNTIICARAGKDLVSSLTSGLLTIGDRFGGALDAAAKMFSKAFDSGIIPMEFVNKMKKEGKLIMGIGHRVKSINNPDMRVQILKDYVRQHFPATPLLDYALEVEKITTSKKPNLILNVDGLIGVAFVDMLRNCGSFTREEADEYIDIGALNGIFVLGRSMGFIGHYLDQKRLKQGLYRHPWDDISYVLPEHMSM
The data set is described as follows: ACLY enzymatic inhibition assay (ADP-Glo Kinase Assay).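 For all read-outs here: purified recombinant His-tagged human ACLY, compounds preincubated with enzyme 15 min, then ADP formed measured as luciferase luminescence after ADP-Glo reagent depletes leftover ATP.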 It counts as biochemical. The conditions noted are these: for IC50: concentration-response curves; for inhibition rate: preliminary screening, concentration of 10 µm. Background: ADP-Glo first removes unused ATP, then detects ADP through luciferase.

Data set [2] addresses T1, ACLY. The conditions noted are these: cited from earlier work.
Data set [3] relates to mice fed on a high-fat diet. On the set-up: method as in PMID 17383874. The conditions noted are these: cited from earlier work.
Data set [4] in a line: Cell-free aggregation assay (DMR, Epic BT system). It counts as physicochemical. The note with it: for critical aggregation concentration (CAC): reaction buffer, DMR responses at a fixed time. How it is done:
The aggregation assay was performed using an Epic BT system (Corning, NY, USA). Reaction buffer (30 μL) was aliquoted in an Epic 384-well microplate (Corning, NY, USA) and equilibrated for 1 h. Then 10 μL compound solution was added and the microplate was placed on the Epic reader. Dynamic mass redistribution (DMR) signals were recorded for 1 h.

Data set [5] deals with T1, ACLY. Nature of the data set: Thermal shift assay (Sypro Orange). The conditions noted are these: DMSO control 54.5 °C. It counts as binding. How it is done:
The thermal shift assay was conducted in a real-time PCR machine (Bio-Rad, Hercules, CA, USA). Sypro Orange fluorescent dye was used to monitor protein folding/unfolding. Purified ACLY and compound solutions were preincubated in low-profile PCR tubes for 15 min at room temperature, and then Sypro Orange was added and incubated for another 15 min on ice. The total volume was 20 μL. The final concentration of ACLY was 1.45 μM and Sypro Orange was 12.5×. The PCR tubes were heated from 25 to 90 °C at a heating rate of 0.5 °C/10 s. The fluorescence intensity changes in each well were recorded. Tm (transition midpoint) was read from the melting curve.

The target of data set [6] is T1, ACLY. The data set is described as follows: Western blotting analysis of ACLY thermal stability. It counts as binding. How it is done: Purified ACLY was preincubated with compounds or DMSO in tubes at room temperature for 15 min. The final concentration of ACLY was 0.58 μM. Then the solution was aliquoted into 200 μL PCR tubes and heated at the indicated temperature for 3 min. […] The SDS–PAGE samples were prepared in 1× loading buffer. A separation gel (8%) and stacking gel (5%) were used to separate and transfer target proteins onto PVDF membranes (0.45 μm). The membranes were blocked at room temperature for 1 h with a blocking solution (Beyotime, Shanghai, China), followed by addition of a primary antibody at room temperature for another 2 h. HRP-linked IgG was used as the secondary antibody and incubated at room temperature for 1 h. Protein bands were imaged by molecular imager ChemiDoc XRS+ (Bio-rad, Hercules, CA, USA).
For orientation: A western blot detects proteins with antibodies after separation by electrophoresis.

The target in data set [7] is T1, ACLY. Nature of the data set: Enzymatic kinetic studies (Michaelis-Menten, Lineweaver-Burk). It counts as biochemical. How it is done:
The inhibition profile of herbacetin against ACLY was determined by the Michaelis–Menten equation and Lineweaver–Burk curve. Reaction rates were recorded separately at different concentrations of substrates with various inhibitor concentrations. […] For competitive inhibition, Vmax is constant, Km decreases; for noncompetitive inhibition, Km is constant, Vmax decreases; for uncompetitive inhibition, both Vmax and Km decrease, while Km/Vmax is constant. Ki values could be calculated according to the following equations. [table]

Another data set relates to human ACLY. On the set-up: method as in PMID 30944472. The note with it: cited from earlier work.
[8] abbreviates: natural ACLY inhibitors, discussion, no reference given.

Read-outs that look alike come from different tables or passages of the source.

Usually IC50 stands for the concentration that gives 50% inhibition. Broadly, the Ki is the equilibrium dissociation constant of an inhibitor or competing ligand from its target.

`O=c1c(O[C@@H]2O[C@H](CO)[C@@H](O)[C@H](O)[C@H]2O)c(-c2ccc(O)c(O)c2)oc2cc(O)cc(O)c12` [compound 20, Isoquercetin]: on ACLY [1], the IC50 stood at 2140 ± 120 nM.

In turn, `O=C1c2c(O)cc(O)cc2OC(c2ccc(O)c(O)c2)C1O` (centres unmarked) [compound 19, Taxifolin] gave an IC50 on ACLY [1] of 2540 ± 250 nM.

For the molecule `O=C(O)CC(O)(C(=O)O)C(O)C(=O)O` (centres unmarked) [Hydroxycitric acid], the Ki on ACLY [2] is 3000 nM; on ACLY [2] (setting [8]) it was 300000 nM.

Consider `O=C(O)[C@H]1O[C@@H](Oc2cc3oc(-c4ccc(O)cc4)cc(=O)c3c(O)c2O)[C@H](O)[C@@H](O)[C@@H]1O` [compound 53, Scutellarin], for which, at ACLY [1], the IC50 was 3770 ± 260 nM.

With `COc1ccc(-c2ccccc2)cc1NS(=O)(=O)c1cc(Cl)cc(Cl)c1O` [BMS–303141], the “plasma cholesterol, triglyceride and glucose levels” value in data set [3] was “lowered plasma cholesterol, triglyceride and glucose levels”.

At ACLY [1], `C[C@@H]1O[C@@H](O[C@H]2[C@H](Oc3cc(O)c4c(=O)cc(-c5ccc(O)c(O)c5)oc4c3)O[C@H](CO)[C@@H](O)[C@@H]2O)[C@H](O)[C@H](O)[C@H]1O` [compound 15, Lonicerin] had an IC50 of 1430 ± 440 nM.

On to `O=c1cc(-c2ccc(O)cc2)oc2cc(O)c(O)c(O)c12` [compound 52, Scutellarein], for which, on ACLY [1], the IC50 amounted to 710 ± 60 nM and the inhibition rate is recorded as 91.80%.

On to anthrone, for which, at ACLY [2] (setting [8]), the IC50 was 280 nM.

As to `C[C@@H]1C[C@H]2O[C@@H]2/C=C\C=C\C(=O)Cc2c(Cl)c(O)cc(O)c2C(=O)O1` [radicicol], the Ki on ACLY [2] (setting [8]) is 10000 nM.

At ACLY [1], `O=c1c(O)c(-c2ccc(O)cc2)oc2cc(O)cc(O)c12` [compound 30, Kaempferol] gave an IC50 of 10200 ± 1070 nM.

The molecule `O=c1cc(-c2ccc(O)c(O)c2)oc2cc(O)c([C@@H]3O[C@H](CO)[C@@H](O)[C@H](O)[C@H]3O)c(O)c12` [compound 14, Isoorientin] came in with an IC50 against ACLY [1] of 1860 ± 290 nM.

Consider antimycin, for which the Ki on ACLY [2] (setting [8]) is 4000 nM.

On ACLY [1], `O=c1cc(-c2ccc(O)c(O)c2)oc2cc(O)cc(O)c12` [compound 51, Luteolin] came in with an IC50 of 640 ± 130 nM and an inhibition rate of 88.28%. The “activity fold higher than that of apigenin” value on ACLY [1] (ratio of IC50 values) is on record as 30 fold.

Consider `O=c1c(O)c(-c2cc(O)c(O)c(O)c2)oc2cc(O)cc(O)c12` [compound 89, Myricetin], for which half-maximal inhibition at ACLY [1] (IC50) required 570 ± 30 nM. Further, in data set [4], the “critical aggregation concentration (CAC)” value is 1.82 µM.

For the molecule `O=c1c(O)c(-c2ccc(O)c(O)c2)oc2cc(O)cc(O)c12` [compound 29, Quercetin], on ACLY [1], the IC50 was 860 ± 50 nM and the inhibition rate turned out to be 91.09%. The “fold more active compared with kaempferol” value on ACLY [1] (ratio of IC50 values) turned out to be 10 fold. Moreover, in data set [4], the “critical aggregation concentration (CAC)” value came out at 6.47 µM.

With `C[C@@H]1O[C@@H](Oc2cc(O)c3c(=O)c(O)c(-c4ccc(O)c(O)c4)oc3c2)[C@H](O)[C@H](O)[C@H]1O` [compound 106, 7-(α-L-Rhamnopyranosyloxy)-2-(3,4-dihydroxyphenyl)-3,5-dihydroxy-4H-1-benzopyran-4-one], the IC50 at ACLY [1] was 570 ± 90 nM.

Turning to `O=c1cc(-c2ccc(O)cc2)oc2cc(O)cc(O)c12` [compound 21, Apigenin], the IC50 against ACLY [1] came out at 19100 ± 11600 nM.

With `O=c1c(O)c(-c2ccc(O)cc2)oc2c(O)c(O)cc(O)c12` [compound 18, Herbacetin], the concentration for half-maximal inhibition (IC50) against ACLY [1] was 500 ± 80 nM. This molecule showed an inhibition rate against ACLY [1] of 96.07%. Moreover, the “fold more active compared with kaempferol” value on ACLY [1] (ratio of IC50 values) stood at 20 fold. Moreover, the “DMR responses (aggregation state)” value in data set [4] (up to 100 μM) is given as “negligible DMR responses”. Moreover, the “Tm of ACLY” value is 55.5 °C on ACLY [5] (40 μM herbacetin) and 56.5 °C at ACLY [5] (200 μM herbacetin). For the same molecule, on ACLY [6] (200 μM, significant at 52, 57, 60 and 62 °C), the “stability of ACLY at a temperature gradient vs control” value is recorded as “more stable”. For the same molecule, at ACLY [6] (57 °C, different concentrations), the “isothermal dose-response of ACLY stability” value was “concentration–dependent effect”. Also, the Ki at ACLY [7] (ATP as substrate) came to 290 nM; on ACLY [7] (CoA as substrate), 190 nM; on ACLY [7] (citric acid (CA) as substrate), 110 nM. The inhibition pattern result at ACLY [7] (towards CA, ATP and CoA) is on record as “noncompetitive inhibitor”.

As to `O=c1c(O)c(-c2ccc(O)cc2O)oc2cc(O)cc(O)c12` [compound 87, Morin], the 50% inhibitory concentration (IC50) at ACLY [1] was 4070 ± 690 nM.

As for `Oc1cc(O)c2c(c1)O[C@H](c1ccc(O)c(O)c1)[C@H](O)C2` [compound 75, Epicatechin], the IC50 at ACLY [1] was 31600 ± 9450 nM.

Regarding `Oc1cc(O)c2cc(O)c(-c3ccc(O)c(O)c3)[o+]c2c1` [compound 74, Cyanidin], 1290 ± 140 nM corresponded to half-maximal inhibition against ACLY [1] (IC50).

On to `O=C(/C=C/c1ccc(O)c(O)c1)O[C@@H]1C[C@](O)(C(=O)O)C[C@@H](OC(=O)/C=C/c2ccc(O)c(O)c2)[C@H]1O` [isochlorogenic acid A], for which the IC50 at ACLY [2] (setting [8]) is 100 nM.

In turn, `COc1cc(-c2oc3cc(O)cc(O)c3c(=O)c2O)ccc1O` [compound 44, Isorhamnetin] gave an IC50 against ACLY [1] of 49700 ± 14800 nM.

`O=C(O)[C@H]1O[C@@H](Oc2cc(O)c3c(=O)cc(-c4ccc(O)c(O)c4)oc3c2)[C@H](O)[C@@H](O)[C@@H]1O` [compound 5, Luteolin 7-O-glucuronide] showed an IC50 against ACLY [1] of 1470 ± 200 nM.

Regarding `O=c1c(O)c(-c2ccc(O)c(O)c2)oc2c(O)c(O)cc(O)c12` [compound 93, Gossypetin], at ACLY [1], 310 ± 20 nM corresponded to half-maximal inhibition (IC50).

Regarding `Oc1cc(O)c2c(c1)OC(c1ccc(O)c(O)c1)C(O)C2` (centres unmarked) [compound 73, Catechin], the IC50 against ACLY [1] was found to be 23600 ± 19200 nM.

`COC(=O)c1cc(Cl)c(O)c(S(=O)(=O)Nc2cc(-c3ccccc3)c(F)cc2F)c1` [NDI–091143]: in the data set with human ACLY, the potency entry is recorded as “nanomolar potency”.

As for `O=c1c(O[C@@H]2O[C@H](CO)[C@H](O)[C@H](O)[C@H]2O)c(-c2ccc(O)c(O)c2)oc2cc(O)cc(O)c12` [compound 6, Hyperoside], the IC50 at ACLY [1] stood at 1530 ± 80 nM.
